Test results reported in ChEMBL document CHEMBL5113478, “7-Azaindole, 2,7-diazaindole, and 1H-pyrazole as core structures for novel anticancer agents with potential chemosensitizing properties” (Eur J Med Chem, 2022).

Experiments:
Format in all cases: functional
[1] = test system: PANC-1; assay: Antiproliferative activity against human PANC-1 cells assessed as […] cell proliferation at 10 uM incubated for 48 hrs by WST-1 assay relative to control
[2] = test system: A2780; assay: Antiproliferative activity against human A2780 cells assessed as […] cell proliferation at 10 uM incubated for 48 hrs by WST-1 assay relative to control
[3] = test system: A549; assay: Antiproliferative activity against human A549 cells assessed as […] cell proliferation at 10 uM incubated for 48 hrs by WST-1 assay relative to control
[4] = test system: A549; assay: Antiproliferative activity against human A549 cells assessed as […] cell proliferation at 10 uM incubated for 48 hrs in presence of 15 uM of CDDP by WST-1 assay relative to control
[5] = test system: Jurkat; assay: Antiproliferative activity against human Jurkat cells assessed as […] cell proliferation at 10 uM incubated for 48 hrs in presence of 2 uM of CDDP by WST-1 assay relative to control
[6] = test system: Jurkat; assay: Antiproliferative activity against human Jurkat cells assessed as […] cell proliferation at 10 uM incubated for 48 hrs by WST-1 assay relative to control
[7] = test system: HeLa; assay: Antiproliferative activity against human HeLa cells assessed as […] cell proliferation at 10 uM incubated for 48 hrs by WST-1 assay relative to control
[8] = test system: HeLa; assay: Antiproliferative activity against human HeLa cells assessed as […] cell proliferation at 10 uM incubated for 48 hrs in presence of 15 uM of CDDP by WST-1 assay relative to control
[9] = test system: MCF7; assay: Antiproliferative activity against human MCF7 cells assessed as […] cell proliferation at 10 uM incubated for 48 hrs by WST-1 assay relative to control
[10] = test system: SAOS-2; assay: Antiproliferative activity against human SAOS-2 cells assessed as […] cell proliferation at 10 uM incubated for 48 hrs in presence of 15 uM of CDDP by WST-1 assay relative to control
[11] = test system: A2780; assay: Antiproliferative activity against human A2780 cells assessed as […] cell proliferation at 10 uM incubated for 48 hrs in presence of 2 uM of CDDP by WST-1 assay relative to control
[12] = test system: HT-29; assay: Antiproliferative activity against human HT-29 cells assessed as […] cell proliferation at 10 uM incubated for 48 hrs by WST-1 assay relative to control
[13] = test system: SAOS-2; assay: Antiproliferative activity against human SAOS-2 cells assessed as […] cell proliferation at 10 uM incubated for 48 hrs by WST-1 assay relative to control
[14] = test system: MOLT-4; assay: Antiproliferative activity against human MOLT-4 cells assessed as […] cell proliferation at 10 uM incubated for 48 hrs in presence of 2 uM of CDDP by WST-1 assay relative to control
[15] = test system: HT-29; assay: Antiproliferative activity against human HT-29 cells assessed as […] cell proliferation at 10 uM incubated for 48 hrs in presence of 15 uM of CDDP by WST-1 assay relative to control
[16] = test system: PANC-1; assay: Antiproliferative activity against human PANC-1 cells assessed as […] cell proliferation at 10 uM incubated for 48 hrs in presence of 15 uM of CDDP by WST-1 assay relative to control
[17] = test system: MCF7; assay: Antiproliferative activity against human MCF7 cells assessed as […] cell proliferation at 10 uM incubated for 48 hrs in presence of 10 uM of CDDP by WST-1 assay relative to control
[18] = test system: MOLT-4; assay: Antiproliferative activity against human MOLT-4 cells assessed as […] cell proliferation at 10 uM incubated for 48 hrs by WST-1 assay relative to control

Row | SMILES | Activity [1] | Activity [2] | Activity [3] | Activity [4] | Activity [5] | Activity [6] | Activity [7] | Activity [8] | Activity [9] | Activity [10] | Activity [11] | Cell viability relative to control [12] | Activity [13] | Activity [14] | Activity [15] | Activity [16] | Activity [17] | Activity [18]
1 | CC(C)S(=O)(=O)c1ccc(-c2cnc3[nH]c(C(=O)Nc4ccc(N(C)C)cc4)cc3c2)cc1 | 108% | 108% | 108% | 68% | 68% | 108% | 108% | 68% | 108% | 68% | 68% | 108% | 108% | 68% | 68% | 68% | 68% | 108%
2 | CCN(CC)c1ccc(CNC(=O)c2n[nH]c3ncc(-c4ccc(S(=O)(=O)C(C)C)cc4)cc23)cc1 | 83% | 83% | 83% | 57% | 57% | 83% | 83% | 57% | 83% | 57% | 57% | 83% | 83% | 57% | 57% | 57% | 57% | 83%
3 | CCN1CCN(C(=O)c2c[nH]c3ncc(-c4ccc(S(=O)(=O)C(C)C)cc4)cc23)CC1 | 100% | 100% | 100% | 66% | 66% | 100% | 100% | 66% | 100% | 66% | 66% | 100% | 100% | 66% | 66% | 66% | 66% | 100%
4 | CC(C)S(=O)(=O)c1ccc(-c2cc(C(=O)N3CCC(c4ccccc4)CC3)n[nH]2)cc1 | 84% | 84% | 84% | 62% | 62% | 84% | 84% | 62% | 84% | 62% | 62% | 84% | 84% | 62% | 62% | 62% | 62% | 84%
5 | CC(C)S(=O)(=O)c1ccc(-c2cnc3[nH]nc(C(=O)NCc4ccccc4)c3c2)cc1 | 90% | 90% | 90% | 60% | 60% | 90% | 90% | 60% | 90% | 60% | 60% | 90% | 90% | 60% | 60% | 60% | 60% | 90%
6 | CS(=O)(=O)c1ccc(-c2cnc3[nH]cc(C(=O)NCc4ccccc4)c3c2)cc1 | 89% | 89% | 89% | 64% | 64% | 89% | 89% | 64% | 89% | 64% | 64% | 89% | 89% | 64% | 64% | 64% | 64% | 89%
7 | CS(=O)(=O)c1ccc(-c2cnc(N)c(C(=O)Nc3ccccc3)n2)cc1 | 66% | 66% | 66% | 16% | 16% | 66% | 66% | 16% | 66% | 16% | 16% | 66% | 66% | 16% | 16% | 16% | 16% | 66%
8 | CC(C)S(=O)(=O)c1ccc(-c2cc(-c3nc(-c4ccccc4)no3)n[nH]2)cc1 | 101% | 101% | 101% | 62% | 62% | 101% | 101% | 62% | 101% | 62% | 62% | 101% | 101% | 62% | 62% | 62% | 62% | 101%
9 | CC(C)S(=O)(=O)c1ccc(-c2cnc3[nH]c(C(=O)NCc4ccccc4)cc3c2)cc1 | 100% | 100% | 100% | 61% | 61% | 100% | 100% | 61% | 100% | 61% | 61% | 100% | 100% | 61% | 61% | 61% | 61% | 100%
10 | CC(C)S(=O)(=O)c1ccc(-c2cnc3[nH]cc(C(=O)Nc4ccc(N(C)C)cc4)c3c2)cc1 | 96% | 96% | 96% | 59% | 59% | 96% | 96% | 59% | 96% | 59% | 59% | 96% | 96% | 59% | 59% | 59% | 59% | 96%
11 | CC(C)S(=O)(=O)c1ccc(-c2cnc3[nH]nc(C(=O)N4CCc5ccccc5C4)c3c2)cc1 | 96% | 96% | 96% | 61% | 61% | 96% | 96% | 61% | 96% | 61% | 61% | 96% | 96% | 61% | 61% | 61% | 61% | 96%
12 | CCN(CC)c1ccc(CNC(=O)c2cc3cc(-c4ccc(S(=O)(=O)C(C)C)cc4)cnc3[nH]2)cc1 | 95% | 95% | 95% | 57% | 57% | 95% | 95% | 57% | 95% | 57% | 57% | 95% | 95% | 57% | 57% | 57% | 57% | 95%
13 | CC(C)S(=O)(=O)c1ccc(-c2cnc3[nH]c(C(=O)Nc4ccccc4)cc3c2)cc1 | 103% | 103% | 103% | 65% | 65% | 103% | 103% | 65% | 103% | 65% | 65% | 103% | 103% | 65% | 65% | 65% | 65% | 103%
